Assay results reported in patent publication US7232912B2, “Indazole compounds, pharmaceutical compositions, and methods for mediating or inhibiting cell proliferation” (Agouron Pharmaceuticals, Inc., priority 2000, dated 2007).
pIC50, pKi: −log10 of the molar value.

Tests used:
[1] = test system: HCT 116 cell line; test: Inhibition of Cell Growth (MTT tetrazolium salt assay); format: cell-based; settings: Homo sapiens, HCT 116, MTT; for pIC50: 50% inhibition of growth, read-out: HCT 116 IC50; for IC90: read-out: HCT 116 IC90
Outline: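 HCT 116 cells in McCoy's 5A were dosed 4 h after plating, in 0.5% (v/v) DMSO, then held 4–6 days at 37 °C, 5% CO2. MTT at 0.2 mg/mL final for 4 h; DMSO-solubilized formazan read at 540 nm. IC50 taken from the linear part of a semi-log plot versus DMSO-only controls.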

[2] = molecular target: CDK4/cyclin D3 (Homo sapiens, UniProt P11802); test: Inhibition of CDK4/Cyclin D Retinoblastoma Kinase Activity; format: biochemical; settings: apparent Ki
CDK4/cyclin D3, sequence (P11802 2-303 limits assumed): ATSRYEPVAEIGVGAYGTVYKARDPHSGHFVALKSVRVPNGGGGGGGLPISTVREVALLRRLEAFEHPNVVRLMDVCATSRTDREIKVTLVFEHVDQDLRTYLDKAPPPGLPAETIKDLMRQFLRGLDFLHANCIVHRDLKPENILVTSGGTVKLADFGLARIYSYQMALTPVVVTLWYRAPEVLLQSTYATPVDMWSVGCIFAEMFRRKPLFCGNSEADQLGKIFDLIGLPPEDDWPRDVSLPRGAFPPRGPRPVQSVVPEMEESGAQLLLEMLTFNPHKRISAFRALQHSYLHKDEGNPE
CDK4/cyclin D3, sequence (P30281 1-264 limits assumed, further chain): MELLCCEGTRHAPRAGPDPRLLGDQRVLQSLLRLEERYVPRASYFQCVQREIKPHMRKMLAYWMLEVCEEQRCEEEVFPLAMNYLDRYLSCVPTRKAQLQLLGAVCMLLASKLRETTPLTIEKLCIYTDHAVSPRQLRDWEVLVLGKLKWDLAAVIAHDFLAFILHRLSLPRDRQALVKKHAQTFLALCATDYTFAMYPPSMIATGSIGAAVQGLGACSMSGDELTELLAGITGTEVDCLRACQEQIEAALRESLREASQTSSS
Outline: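 Human CDK4/cyclin D3 (full-length or cyclin D3 1–264), insect-cell expressed, at 5 or 50 nM with His-tagged Rb 386–928 substrate, 25 μM ATP plus [32P/33P]ATP, pH 7.4, 2% DMSO, 30 °C for 20 min; tight binders used 5 nM enzyme for 60 min. Filter-captured phospho-Rb quantified by phosphorimager. Apparent Ki from competitive or tight-binding inhibition fits.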

[3] = molecular target: T1, FGFR1 tyrosine kinase (Homo sapiens, UniProt P11362, C488A/C584S/L457V); test: Inhibition of phosphorylated FGF receptor tyrosine kinase activity; format: biochemical; settings: read-out: FGF % Inhib. at 1 μM
T1 construct: the cytosolic domain of FGFR1 tyrosine kinase (amino acids 456–766); made in house; host or cells: Sf9 insect cells (baculovirus)
T1 sequence (P11362 456-766 L457V/C488A/C584S): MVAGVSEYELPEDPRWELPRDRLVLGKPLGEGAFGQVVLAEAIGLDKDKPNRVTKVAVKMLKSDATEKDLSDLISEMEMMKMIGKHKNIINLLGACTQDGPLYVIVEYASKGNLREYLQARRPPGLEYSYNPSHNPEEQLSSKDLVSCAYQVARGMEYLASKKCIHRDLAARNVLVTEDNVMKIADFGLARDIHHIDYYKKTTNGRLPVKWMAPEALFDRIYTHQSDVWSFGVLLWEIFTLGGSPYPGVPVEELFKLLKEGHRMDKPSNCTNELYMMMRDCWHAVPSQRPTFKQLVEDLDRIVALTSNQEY
Protocol: Inhibition of Phosphorylated FGF Receptor and LCK Tyrosine Kinase Activity
Cloning, expression and purification of the cytosolic domain of FGFR1 tyrosine kinase (amino acids 456–766) containing three amino acid substitutions (L457V, C488A, and C584S) were conducted as previously described (Mohammadi, M., Schlessinger, J., & Hubbard, S. R. (1996) Cell 86, 577–587). This domain was expressed in Sf9 insect cells using a baculovirus expression vector, and protein was purified using conventional techniques. The LCK tyrosine kinase was expressed in insect cells as an N-terminal deletion starting from amino acid 223 to the end of the protein at amino acid 509. The N-terminus of the protein also had two amino acid substitutions, P223M and C 224D. Kinases were purified using conventional chromatographic methods.
Tyrosine kinase activity was measured using a coupled, continuous spectrophotometric assay, in which production of phosphorylated poly(Glu, Tyr; 4:1) substrate and ADP is coupled to the pyruvate kinase-catalyzed transfer of a phosphate from phosphoenolpyruvate to ADP, with generation of pyruvate and regeneration of ATP. Pyruvate production is in turn coupled to the lactate dehydrogenase-catalyzed reduction of pyruvate to form lactate, with concomitant conversion of NADH to NAD+. Loss of NADH is monitored by measuring absorbance at 340 nm (see e.g., Technikova-Dobrova et al., “Spectrophotometric determination of functional characteristics of protein kinases with coupled enzymatic assay,” FEBS Letters, vol. 292 (1991), pp. 69–72). Enzyme activity was measured in the presence of 200 mM HEPES (pH 7.5), 2 mM phosphoenolpyruvate, 0.3 mM NADH, 20 mM MgCl2, 100 μM ATP, 5 mM DTT, 5.1 or 25 mM poly (Glu,Tyr) 4:1 for P-FGF or P-LCK assays, respectively, and 15 units/mL each of pyruvate kinase and lactate dehydrogenase. Phosphorylated FGF receptor kinase was present at 100 nM and phosphorylated LCK kinase was present at 50 nM. Assays were performed under initial rate conditions at 37° C., and rates were corrected for any background rate measured in the absence of enzyme. Percent inhibition was calculated relative to control enzyme assayed in the presence of 2% (v/v) DMSO.

[4] = molecular target: T2, CDK2/cyclin A (Homo sapiens, UniProt P24941); test: Inhibition of CDK2/Cyclin A Retinoblastoma Kinase Activity; format: biochemical; settings: apparent Ki
T2 construct: made in house; host or cells: CDK2: insect cells (baculovirus); cyclin A: E. coli
Outline: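 Baculovirus-expressed CDK2 complexed with proteolyzed cyclin A, at 150 nM or 5 nM, phosphorylating an Rb fragment with 25 µM [32/33P]ATP in HEPES pH 7.4, 2% DMSO. Reactions run 20 min at 30°C, EDTA-stopped, filter-captured; apparent Ki from competitive or tight-binding competitive fits.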

SMILES | pIC50 [1] | IC90 [1] [µM] | pKi [2] | inhibition at 1 µM [3] [%] | pKi [4]
Fc1cccc2cncc(-c3ccc4[nH]nc(/C=C/c5ccccc5)c4c3)c12 [Example 44] | 5.30 | 5 | 7.72 | 56.2 | 7.54
COc1c(O)cccc1-c1ccc2[nH]nc(-c3nc4ccccc4[nH]3)c2c1 [Example 47, 3-[3-(1H-benzoimidazol-2-yl)-1H-indazol-5-yl]-2-methoxy-phenol] | 5.68 | 5 | 7.03 | 81.1 | 7.00
Oc1ccc(F)c(-c2ccc3[nH]nc(-c4nc5ccccc5[nH]4)c3c2)c1F [Example 49, 3-[-3-(1H-Benzoimidazol-2-yl)-1H-indazol-5-yl]-2,4-difluoro-phenol] | 5.64 | 4.8 | 7.02 | 86.7 | 7.31

Stronger by pIC50 [1], values ahead:

pIC50 [1] | IC90 [1] [µM] | pKi [2] | inhibition at 1 µM [3] [%] | pKi [4] | SMILES
5.72 | 5 | 7.82 | 59.6 | 7.54 | Cc1ccncc1-c1ccc2[nH]nc(/C=C/c3ccccc3)c2c1 [Example 43, 5-(4Methyl-pyridin-3-yl)-3-(E)styryl-1H-indazole]
5.74 | 5 | 6.60 | 89.6 | 7.14 | Oc1cc(F)c(-c2ccc3[nH]nc(-c4nc5ccccc5[nH]4)c3c2)c(F)c1 [Example 50, 4-[-3-(1H-Benzoimidazol-2-yl)-1H-indazol-5-yl]-3,5-difluoro-phenol]
6.41 | 1.3 | 8.55 | 44.1 | 9.00 | Cc1c(-c2ccc3[nH]nc(-c4nc5ccccc5[nH]4)c3c2)cncc1-c1c[nH]cn1 [Example 65, 3-(1H-Benzoimidazol-2-yl)-5-[5-(1H-imidazol-4-yl)-4-methyl-pyridin-3-yl]-1H-indazole]
6.80 | 0.6 | 8.33 | 12.6 | 8.96 | Cc1c(-c2ccncc2)cncc1-c1ccc2[nH]nc(-c3nc4c(CN(C)C)cccc4[nH]3)c2c1 [Example 68, Dimethyl-{2-[5-(4-methyl-[3,4′]bipyridinyl-5-yl)-1H-indazol-3-yl]-1H-benzoimidazol-4-ylmethyl}-amine]
